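Results reflect a 48-hour exposure of cells in 96-well plates to compound at five concentrations. GI50 marks 50% less growth.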 Active and inactive are the calls of the source. Cut-off read from the data, not from the text of the source: active = GI50 up to about 1.1 µM and inactive = higher.
What was measured:
Assay in all cases: DTP human tumour cell line panel, 48 h
786-0 = tested on: 786-0
HOP-62 = tested on: HOP-62
HT-29 = tested on: HT-29
OVCAR-8 = tested on: OVCAR-8
OVCAR-4 = tested on: OVCAR-4
SW-620 = tested on: SW-620
MDA-N = tested on: MDA-N
DU-145 = tested on: DU-145
SK-MEL-5 = tested on: SK-MEL-5
SNB-19 = tested on: SNB-19
Malme-3M = tested on: Malme-3M
HCT-15 = tested on: HCT-15
KM12 = tested on: KM12
Hs-578T = tested on: Hs-578T
EKVX = tested on: EKVX
UACC-257 = tested on: UACC-257
NCI-H460 = tested on: NCI-H460
MOLT-4 = tested on: MOLT-4
HL-60 = tested on: HL-60

| Compound | GI50 (786-0) | GI50 (HOP-62) | GI50 (HT-29) | GI50 (OVCAR-8) | GI50 (OVCAR-4) | GI50 (SW-620) | GI50 (MDA-N) | GI50 (DU-145) | GI50 (SK-MEL-5) | GI50 (SNB-19) | GI50 (Malme-3M) | GI50 (HCT-15) | GI50 (KM12) | GI50 (Hs-578T) | GI50 (EKVX) | GI50 (UACC-257) | GI50 (NCI-H460) | GI50 (MOLT-4) | GI50 (HL-60) |
| --- | --- | --- | --- | --- | --- | --- | --- | --- | --- | --- | --- | --- | --- | --- | --- | --- | --- | --- | --- |
| N/N=C1\C(OC(=O)Nc2ccccc2)=Nc2ccccc21 | 16.4 µM (inactive) | 18.6 µM (inactive) | 30.5 µM (inactive) | 12.1 µM (inactive) | 12.8 µM (inactive) | 31.9 µM (inactive) | 19.1 µM (inactive) | 10.8 µM (inactive) | 14.2 µM (inactive) | 26.8 µM (inactive) | 13.2 µM (inactive) | 26.5 µM | 13.1 µM (inactive) | 36.2 µM (inactive) | 18.2 µM (inactive) | 29.7 µM (inactive) | 10.9 µM (inactive) |  |  |
| O=C(C[N+]12CN3CN(CN(C3)C1)C2)c1ccc(-c2ccccc2)cc1 | 17.7 µM (inactive) | 23 µM (inactive) | 22.5 µM (inactive) | 32 µM (inactive) | 51.4 µM (inactive) | 8.67 µM (inactive) | 21.8 µM (inactive) | 17.6 µM (inactive) | 16.4 µM (inactive) | 22.6 µM (inactive) | 21.3 µM (inactive) | 30.1 µM | 32 µM (inactive) | 32.7 µM (inactive) | 19.8 µM (inactive) | 15.8 µM (inactive) | 13.7 µM (inactive) | 16.7 µM (inactive) |  |
| Cc1cc(Cl)nc2ccc(Cc3ccc4nc(Cl)cc(C)c4c3)cc12 | 12.2 µM (inactive) | 18.5 µM (inactive) | 68.5 µM (inactive) | 28.6 µM (inactive) | 34.8 µM (inactive) | > 100 µM (inactive) | 47.3 µM (inactive) | > 100 µM (inactive) | 23.8 µM (inactive) | 32.4 µM (inactive) | 21.8 µM (inactive) | 49.3 µM | > 100 µM (inactive) | 36.3 µM (inactive) | 44.3 µM (inactive) | 27 µM (inactive) | 41.5 µM (inactive) | > 100 µM (inactive) |  |
| O=C1CCCCCCCCCCC1CCCCCBr (stereo not drawn) | 32.4 µM (inactive) | 29.2 µM (inactive) | 25.9 µM (inactive) | 31.8 µM (inactive) | 16.9 µM (inactive) | 42.5 µM (inactive) | 31.8 µM (inactive) | 28.7 µM (inactive) | 15.3 µM (inactive) | 25.8 µM (inactive) | 15.8 µM (inactive) | 24.3 µM | 23.1 µM (inactive) | 46.8 µM (inactive) | 41.7 µM (inactive) | 21.3 µM (inactive) | 36.6 µM (inactive) | 17.1 µM (inactive) |  |
| NC(=O)NC(=O)c1cccc(NC(=O)CI)c1 | < 0.01 µM (active) | 0.103 µM (active) | < 0.0178 µM (active) | < 0.0123 µM (active) | 0.148 µM (active) | < 0.01 µM (active) | < 0.01 µM (active) | 0.0344 µM (active) | < 0.0105 µM (active) | 0.646 µM (active) |  | < 0.0159 µM | 0.0391 µM (active) | 0.0398 µM (active) | 0.863 µM (active) | < 0.0252 µM (active) | 0.0485 µM (active) | < 0.01 µM (active) | < 0.01 µM (active) |
| Cc1ccc(Nc2nc(=O)[nH]c(=O)[nH]2)cc1N | > 100 µM (inactive) | > 100 µM (inactive) | > 100 µM (inactive) | > 100 µM (inactive) | > 100 µM (inactive) | 30.8 µM (inactive) | > 100 µM (inactive) | > 100 µM (inactive) | > 100 µM (inactive) | > 100 µM (inactive) | > 100 µM (inactive) | > 100 µM | > 100 µM (inactive) | > 100 µM (inactive) | > 100 µM (inactive) | > 100 µM (inactive) | > 100 µM (inactive) |  | > 100 µM (inactive) |
| COc1ccc(Nc2nc3cc(C(F)(F)F)ccc3n3cccc23)cc1OC | 8.15 µM (inactive) | 22.3 µM (inactive) | 8.99 µM (inactive) | 23.3 µM (inactive) |  | 34.7 µM (inactive) | 12.6 µM (inactive) | 20.3 µM (inactive) | 14.5 µM (inactive) | 19.4 µM (inactive) | 24.2 µM (inactive) | 11.4 µM | 10.3 µM (inactive) | 29.2 µM (inactive) | 20.3 µM (inactive) | 17.5 µM (inactive) | 10.4 µM (inactive) | 7.85 µM (inactive) | 19.8 µM (inactive) |
| Cc1cc(Cl)ccc1OCC(=O)Oc1c(Cl)c(Cl)c(Cl)c(Cl)c1Cl | 29.4 µM (inactive) | 21.4 µM (inactive) | 26.7 µM (inactive) | 26 µM (inactive) | 27.3 µM (inactive) | 32.3 µM (inactive) | 26.2 µM (inactive) | 22.4 µM (inactive) | 22.9 µM (inactive) | 26.4 µM (inactive) | 19.2 µM (inactive) | 27 µM | 23.2 µM (inactive) | 22.6 µM (inactive) | 18.6 µM (inactive) | 19.6 µM (inactive) | 22.6 µM (inactive) |  | > 100 µM (inactive) |
